Test results taken from US20020169101A1, “Treatment of sexual dysfunction” (priority 1999, published 2002).

Key:
[1] = target: T1, human GRP receptor (BB2) (Homo sapiens, UniProt P30550); assay: BB2 binding assay ([125I][Tyr4]bombesin displacement, CHO-K1 membranes)
T1 construct: expressed in transfected cells; membranes prepared from the cells
Description: (§1) In the following experiments, measurement of BB1 and BB2 binding was as follows. CHO-K1 cells stably expressing cloned human NMB (for (BB1 assay) and GRP receptors (for BB2 assay) were routinely grown in Ham's F12 culture medium supplemented with 10% foetal calf serum and 2 mM glutamine. For binding experiments, cells were harvested by trypsinization, and stored frozen at −70° C. in Ham's F12 culture medium containing 5% DMSO until required. On the day of use, cells were thawed rapidly, diluted with an excess of culture medium, and centrifuged for 5 minutes at 2000 g. Cells were resuspended in 50 mM Tris-HCl assay buffer (pH 7.4 at 21° C., containing 0.02% BSA, 40 μg/mL bacitracin, 2 μg/mL chymostatin, 4 μg/mL leupeptin, and 2 μM phosphoramidon), counted, and polytronned (setting 5, 10 sec) before centrifuging for 10 minutes at 28,000 g. The final pellet was resuspended in assay buffer to a final cell concentration of 1.5×10^5/mL. For binding assays, […] aliquots of membranes were incubated with [^125I][Tyr^4]bombesin (<0.1 nM) in the presence and absence of test compounds (final assay volume 250 μL) for 60 minutes and 90 minutes for NMB and GRP receptors, respectively. Nonspecific binding was defined by 1 μM bombesin. Assays were terminated by rapid filtration under vacuum onto Whatman GF/C filters presoaked in 0.2% PEI for >2 hours, and washed 50 mM Tris-HCl (pH 6.9 at 21° C.; 6×1 mL). Radioactivity bound was determined using a gamma counter.
(§2) All competition data was analysed using nonlinear regression utilizing iterative curve-plotting procedures in Prism® (GraphPad Software Inc., San Diego, USA). IC50 values were corrected to Ki values using the Cheng-Prusoff equation (Cheng Y., Prusoff W. H., Biochem. Pharmacol. 22: 3099-3108, 1973). obtained are listed in Table 1.

[2] = target: T2, human NMB receptor (BB1) (Homo sapiens, UniProt P28336); assay: BB1 binding assay ([125I][Tyr4]bombesin displacement, CHO-K1 membranes)
T2 construct: expressed in transfected cells; membranes prepared from the cells
T2 sequence (P28336 whole entry): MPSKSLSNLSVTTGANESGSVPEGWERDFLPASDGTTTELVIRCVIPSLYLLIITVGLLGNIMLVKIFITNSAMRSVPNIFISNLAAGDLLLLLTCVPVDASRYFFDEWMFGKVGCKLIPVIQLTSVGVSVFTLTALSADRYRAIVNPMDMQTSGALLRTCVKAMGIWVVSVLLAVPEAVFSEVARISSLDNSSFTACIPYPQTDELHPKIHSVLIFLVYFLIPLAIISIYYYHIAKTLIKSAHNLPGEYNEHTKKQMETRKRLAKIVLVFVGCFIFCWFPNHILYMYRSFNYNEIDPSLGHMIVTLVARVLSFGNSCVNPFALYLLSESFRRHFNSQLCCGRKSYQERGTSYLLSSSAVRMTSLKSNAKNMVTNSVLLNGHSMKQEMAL
Description: as §1, §2

[3] = Table 3, N-acyl derivatives of Intermediate III-7
[4] = binding studies to the bombesin receptors

T1 sequence (P30550 whole entry): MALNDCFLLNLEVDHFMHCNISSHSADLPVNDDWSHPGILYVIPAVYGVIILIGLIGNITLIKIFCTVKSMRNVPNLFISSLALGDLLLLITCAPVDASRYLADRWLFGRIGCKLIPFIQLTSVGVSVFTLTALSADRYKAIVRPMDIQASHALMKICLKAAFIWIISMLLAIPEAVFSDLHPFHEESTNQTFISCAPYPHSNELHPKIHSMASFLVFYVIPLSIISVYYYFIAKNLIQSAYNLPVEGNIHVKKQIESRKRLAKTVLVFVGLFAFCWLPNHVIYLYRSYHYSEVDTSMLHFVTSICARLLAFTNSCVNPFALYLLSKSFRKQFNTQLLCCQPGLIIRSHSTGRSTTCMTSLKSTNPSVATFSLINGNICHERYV

Compound	IC50 [1, 3]	IC50 [2, 3]	IC50 [1, 4]	IC50 [2, 4]
Cc1cccc(CC(=O)N[C@@](C)(Cc2c[nH]c3ccccc23)C(=O)NCC2(c3ccccn3)CCCCC2)c1 [Example 54, (S)-3-(1H-Indol-3-yl)-2-methyl-N-(1-pyridin-2-yl-cyclohexylmethyl)-2-(2-m-tolyl-ethanoylamino)-propionamide]	> 10000 nM	817 nM	–	–
C[C@@](Cc1c[nH]c2ccccc12)(NC(=O)Cc1ccccc1F)C(=O)NCC1(c2ccccn2)CCCCC1 [Example 55, (S)-2-[2-(2-Fluoro-phenyl)-ethanoylamino]-3-(1H-indol-3-yl)-2-methyl-N-(1-pyridin-2-yl-cyclohexylmethyl)-propionamide]	1550 nM	878 nM	–	–
C[C@@](Cc1c[nH]c2ccccc12)(NC(=O)Cc1ccsc1)C(=O)NCC1(c2ccccn2)CCCCC1 [Example 56, (S)-3-(1H-Indol-3-yl)-2-methyl-N-(1-pyridin-2-yl-cyclohexylmethyl)-2-(2-thiophen-3-yl-ethanoylamino)-propionamide]	> 10000 nM	1440 nM	–	–
C[C@@](Cc1c[nH]c2ccccc12)(NC(=O)c1ccncc1)C(=O)NCC1(c2ccccn2)CCCCC1 [Example 58]	> 10000 nM	1360 nM	–	–
C[C@@](Cc1c[nH]c2ccccc12)(NC(=O)c1cc2ccccc2[nH]1)C(=O)NCC1(c2ccccn2)CCCCC1 [Example 61, 1H-Indole-2-carboxylic acid {(S)-2-(1H-indol-3-yl)-1-methyl-1-[(1-pyridin-2-yl-cyclohexylmethyl)-carbamoyl]-ethyl}-amide]	527 nM	289 nM	–	–
C[C@@](Cc1c[nH]c2ccccc12)(NC(=O)c1cccs1)C(=O)NCC1(c2ccccn2)CCCCC1 [Example 64, Thiophene-2-carboxylic acid {(S)-2-(1H-indol-3-yl)-1-methyl-1-[(1-pyridin-2-yl-cyclohexylmethyl)-carbamoyl]-ethyl}-amide]	> 10000 nM	1440 nM	–	–
C[C@@](Cc1c[nH]c2ccccc12)(NC(=O)c1ccsc1)C(=O)NCC1(c2ccccn2)CCCCC1 [Example 65, Thiophene-3-carboxylic acid {(S)-2-(1H-indol-3-yl)-1-methyl-1-[(1-pyridin-2-yl-cyclohexylmethyl)-carbamoyl]-ethyl}-amide]	> 10000 nM	2200 nM	–	–
C[C@@](Cc1c[nH]c2ccccc12)(NC(=O)c1ccc2cc[nH]c2c1)C(=O)NCC1(c2ccccn2)CCCCC1 [Example 66, 1H-Indole-6-carboxylic acid {(S)-2-(1H-indol-3-yl)-1-methyl-1-[(1-pyridin-2-yl-cyclohexylmethyl)-carbamoyl]-ethyl}-amide]	> 10000 nM	1600 nM	–	–
C[C@@](Cc1c[nH]c2ccccc12)(NC(=O)c1ccc2[nH]ccc2c1)C(=O)NCC1(c2ccccn2)CCCCC1 [Example 67, 1H-Indole-5-carboxylic acid {(S)-2-(1H-indol-3-yl)-1-methyl-1-[(1-pyridin-2-yl-cyclohexylmethyl)-carbamoyl]-ethyl}-amide]	> 10000 nM	1880 nM	–	–
C[C@@](Cc1c[nH]c2ccccc12)(NC(=O)c1cccc2[nH]ccc12)C(=O)NCC1(c2ccccn2)CCCCC1 [Example 68, 1H-Indole-4-carboxylic acid {(S)-2-(1H-indol-3-yl)-1-methyl-1-[(1-pyridin-2-yl-cyclohexylmethyl)-carbamoyl]-ethyl}-amide]	> 10000 nM	4500 nM	–	–

The next lines start with the values.

IC50 [1, 3]	IC50 [2, 3]	IC50 [1, 4]	IC50 [2, 4]	Compound
> 10000 nM	1370 nM	–	–	C[C@@](Cc1c[nH]c2ccccc12)(NC(=O)c1cccc2cc[nH]c12)C(=O)NCC1(c2ccccn2)CCCCC1 [Example 69, 1H-Indole-7-carboxylic acid {(S)-2-(1H-indol-3-yl)-1-methyl-1-[(1-pyridin-2-yl-cyclohexylmethyl)-carbamoyl]-ethyl}-amide]
> 10000 nM	1230 nM	–	–	Cn1c(C(=O)N[C@@](C)(Cc2c[nH]c3ccccc23)C(=O)NCC2(c3ccccn3)CCCCC2)cc2ccccc21 [Example 70, 1-Methyl-1H-indole-2-carboxylic acid {(S)-2-(1H-indol-3-yl)-1-methyl-1-[(1-pyridin-2-yl-cyclohexylmethyl)-carbamoyl]-ethyl}-amide]
> 10000 nM	611 nM	–	–	C[C@@](Cc1c[nH]c2ccccc12)(NC(=O)c1cc2ccccc2s1)C(=O)NCC1(c2ccccn2)CCCCC1 [Example 71, Benzo[b]thiophene-2-carboxylic acid {(S)-2-(1H-indol-3-yl)-1-methyl-1-[(1-pyridin-2-yl-cyclohexylmethyl)-carbamoyl]-ethyl}-amide]
1490 nM	897 nM	–	–	C[C@@](Cc1c[nH]c2ccccc12)(NC(=O)c1ccc2ncsc2c1)C(=O)NCC1(c2ccccn2)CCCCC1 [Example 72, Benzothiazole-6-carboxylic acid {(S)-2-(1H-indol-3-yl)-1-methyl-1-[(1-pyridin-2-yl-cyclohexylmethyl)-carbamoyl]-ethyl}-amide]
> 10000 nM	744 nM	–	–	Cc1ccsc1C(=O)N[C@@](C)(Cc1c[nH]c2ccccc12)C(=O)NCC1(c2ccccn2)CCCCC1 [Example 74, 3-Methyl-thiophene-2-carboxylic acid {(S)-2-(1H-indol-3-yl)-1-methyl-1-[(1-pyridin-2-yl-cyclohexylmethyl)-carbamoyl]-ethyl}-amide]
> 10000 nM	1660 nM	–	–	Cc1ccc(C(=O)N[C@@](C)(Cc2c[nH]c3ccccc23)C(=O)NCC2(c3ccccn3)CCCCC2)s1 [Example 75, 5-Methyl-thiophene-2-carboxylic acid {(S)-2-(1H-indol-3-yl)-1-methyl-1-[(1-pyridin-2-yl-cyclohexylmethyl)-carbamoyl]-ethyl}-amide]
> 10000 nM	2820 nM	–	–	Cc1cccc(C(=O)N[C@@](C)(Cc2c[nH]c3ccccc23)C(=O)NCC2(c3ccccn3)CCCCC2)n1 [Example 76, 6-Methyl-pyridine-2-carboxylic acid {(S)-2-(1H-indol-3-yl)-1-methyl-1-[(1-pyridin-2-yl-cyclohexylmethyl)-carbamoyl]-ethyl}-amide]
> 10000 nM	4480 nM	–	–	C[C@@](Cc1c[nH]c2ccccc12)(NC(=O)c1cccc2cccnc12)C(=O)NCC1(c2ccccn2)CCCCC1 [Example 79, Quinoline-8-carboxylic acid {(S)-2-(1H-indol-3-yl)-1-methyl-1-[(1-pyridin-2-yl-cyclohexylmethyl)-carbamoyl]-ethyl}-amide]
> 10000 nM	2660 nM	–	–	C[C@@](Cc1c[nH]c2ccccc12)(NC(=O)c1ncoc1-c1ccccc1)C(=O)NCC1(c2ccccn2)CCCCC1 [Example 80, 5-Phenyl-oxazole-4-carboxylic acid {(S)-2-(1H-indol-3-yl)-1-methyl-1-[(1-pyridin-2-yl-cyclohexylmethyl)-carbamoyl]-ethyl}-amide]
> 10000 nM	361 nM	–	–	C[C@@](Cc1c[nH]c2ccccc12)(NC(=O)c1ccccc1-n1cccc1)C(=O)NCC1(c2ccccn2)CCCCC1 [Example 81, N—{(S)-2-(1H-Indol-3-yl)-1-methyl-1-[(1-pyridin-2-yl-cyclohexylmethyl)-carbamoyl]-ethyl}-2-pyrrol-1-yl-benzamide]
> 10000 nM	1690 nM	–	–	COc1ccc(CC(=O)N[C@@](C)(Cc2c[nH]c3ccccc23)C(=O)NCC2(c3ccccn3)CCCCC2)cc1 [Example 82, (S)-3-(1H-Indol-3-yl)-2-[2-(4-methoxy-phenyl)-ethanoylamino]-2-methyl-N-(1-pyridin-2-yl-cyclohexylmethyl)-propionamide]
> 10000 nM	2710 nM	–	–	CN(C)c1ccc(CC(=O)N[C@@](C)(Cc2c[nH]c3ccccc23)C(=O)NCC2(c3ccccn3)CCCCC2)cc1 [Example 83, (S)-2-[2-(4-Dimethylamino-phenyl)-ethanoylamino]-3-(1H-indol-3-yl)-2-methyl-N-(1-pyridin-2-yl-cyclohexylmethyl)-propionamide]
> 10000 nM	1980 nM	–	–	C[C@@](Cc1c[nH]c2ccccc12)(NC(=O)Cc1ccccc1[N+](=O)[O-])C(=O)NCC1(c2ccccn2)CCCCC1 [Example 84, (S)-3-(1H-Indol-3-yl)-2-methyl-2-[2-(2-nitro-phenyl)-ethanoylamino]-N-(1-pyridin-2-yl-cyclohexylmethyl)-propionamide]
2480 nM	1330 nM	–	–	COc1ccccc1CC(=O)N[C@@](C)(Cc1c[nH]c2ccccc12)C(=O)NCC1(c2ccccn2)CCCCC1 [Example 85, (S)-3-(1H-Indol-3-yl)-2-[2-(2-methoxy-phenyl)-ethanoylamino]-2-methyl-N-(1-pyridin-2-yl-cyclohexylmethyl)-propionamide]
–	–	119 nM	11 nM	COc1ccc(C2(CNC(=O)[C@](C)(Cc3c[nH]c4ccccc34)NC(=O)c3cc4ccccc4[nH]3)CCCCC2)nc1 [Example 86, 1H-Indole-2-carboxylic Acid ((S)-2-(1H-indol-3-yl)-1-{[1-(5-methoxy-pyridin-2-yl)-cyclohexylmethyl]-carbamoyl}-1-methyl-ethyl)-amide]
